Key:
[1] = test system: Ras; test: mobility-shift assay of Ras in labeled COS-1 cells (SDS-PAGE/Western blot); assay type: cell-based; details: 24 h; for effect on lovastatin-induced mobility shift of Ras: COS-1 cells treated with lovastatin
Procedure: FIG. 3. Detection of F-azide modified Ras and HDJ-2 by mobility-shift assay. Mobility-shift assay of Ras (A) and HDJ-2 (B). COS-1 cells were labeled with the indicated compounds for 24 h, the cell lysate were resolved in SDS-PAGE and probed using anti-Ras and anti-HDJ-2 antibodies, respectively. The letters, “u” and “p”, indicate the unmodified and isoprenylated forms of the protein, respectively.
To determine if the cell will process exogenous azido-farnesyl substrates, metabolic labeling of cells was carried out with synthetic substrates, either FPP azide or F-azide-OH, and mobility-shift assays were performed for Ras and HDJ-2 in order to determine if they are posttranslationally modified. Unprocessed Ras and HDJ-2 move more slowly than their farnesylated isoforms, therefore allowing separation in SDS-PAGE and subsequent detection by Western blotting analysis (James, 1994; Adjei, 2000).
COS-1 cells were grown in Dulbecco's modified Eagle's medium supplemented with 10% fetal bovine serum, 1% penicillin/streptomycin. When cells reached to 70% confluence, lovastatin was added and incubated for suitable amount of time prior to adding FPP azide.
Cells were harvested and lysed in 1 ml of lysis buffer (50 mM HEPES pH 7.6, 250 mM sodium chloride, 1.5 mM magnesium chloride, 1 mM EDTA, 10% (v/v) glycerol, 1% Triton X-100, and protease inhibitor cocktail (Roche Molecular Biochemicals, Indianapolis, Ind.)). The protein lystes were resolved in a 15% SDS-polyacrylamide gel, and transferred to PVDF membrane. The membrane was washed with TBST buffer (0.1% Tween 20, 150 mM NaCl, 25 mM TrisCl, pH 7.5), blocked for 2 h with a solution containing 5% (w/v) dried nonfat milk in TTBS, and immunoblotted for 2 h with an antibody in a blocking buffer (5% BSA in TTBS). After washing 4 times with TBST with changes every 15 min., the membrane was incubated with HRP-conjugated secondary antibody in TBST (1:5000 dilution) with 5% non-fat milk. The membrane was washed again for 4 times in TBST and visualized by enhanced chemiluminescence.

[2] = test system: COS cells; test: global detection of F-azide modified proteins by Western blotting after conjugation to biotinylated phosphine capture reagent; assay type: cell-based; details: COS cells dosed with lovastatin and substrate; signals competed away by 0.1 mM D-biotin
Procedure: FIG. 4. Global detection of F-azide modified proteins by Western blotting analysis. COS cells were labeled with DMSO, or FPP N3 with or without lovastatin, as indicated, for 24 h. The protein lysates from the cells were precipitated by acetone/TCA method, redissolved in a buffer containing 2% SDS and PBS. The resulting solution was conjugated to biotinylated phosphine capture reagents or not, precipitated by acetone/TCA method again. The protein pellet was redissolved in 1×SDS sample buffer, resolved in SDS-PAGE, and detected by Western blotting analysis using streptavidin-conjugated HRP with or without biotin.
To further test whether proteins could be modified by F-azide and subsequently detected, Western blotting analysis was carried out in order to detect F-azide modified proteins. The protein whole-cell lysate from the cells dosed with lovastatin and FPP azide was subjected to conjugation reaction using biotinylated phosphine capture reagent. The resulting lysate was resolved using a SDS-PAGE gel and the biotinylated proteins detected by Western blotting analysis using HRP-conjugated streptavidin.
COS-1 cells were grown in Dulbecco's modified Eagle's medium supplemented with 10% fetal bovine serum, 1% penicillin/streptomycin. When cells reached to 70% confluence, lovastatin was added and incubated for suitable amount of time prior to adding FPP azide. […]

[3] = test system: cells; test: growth rate of cells cultured in DMEM media with the labeling compounds; assay type: cell-based; details: DMEM media containing lovastatin, FPP-azide/F-azide-OH, and GG-OH together
Source text: Several lines of evidence indicate that F-azide modified proteins maintain the major characteristics of naturally farnesylated proteins. First, F-azide-modified Ras retains GTPase activity. Second, F-azide modification induced Ras' membrane association.

[4] = test system: Ras; test: Ras localisation, cytosol versus membrane association; assay type: cell-based; details: for membrane association of Ras: cells treated with lovastatin plus azido-farnesyl substrate
Source text: Farnesylated Ras protein is plasma-membrane associated while the unprocessed isoform is mainly located in cytosol.

[5] = target: FTase (Homo sapiens, UniProt P49354+P49356); test: in vitro farnesylation reaction of RC peptide (KKFFCAIS) with FTase, MALDI-TOF readout; assay type: biochemical
Sequence of FTase (P49356 whole entry, one chain of several): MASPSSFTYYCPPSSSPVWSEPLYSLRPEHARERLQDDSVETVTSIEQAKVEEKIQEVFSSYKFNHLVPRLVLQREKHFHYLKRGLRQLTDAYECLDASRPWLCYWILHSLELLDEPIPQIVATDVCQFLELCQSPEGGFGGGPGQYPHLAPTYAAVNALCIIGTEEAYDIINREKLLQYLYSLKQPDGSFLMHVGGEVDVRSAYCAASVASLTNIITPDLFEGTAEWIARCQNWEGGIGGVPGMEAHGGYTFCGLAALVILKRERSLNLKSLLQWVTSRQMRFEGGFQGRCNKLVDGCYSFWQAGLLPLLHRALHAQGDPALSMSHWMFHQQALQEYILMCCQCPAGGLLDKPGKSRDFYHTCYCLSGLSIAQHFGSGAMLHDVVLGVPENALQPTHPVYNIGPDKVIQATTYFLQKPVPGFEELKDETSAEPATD
Procedure: FIG. 2. FPP azide is a substrate for in vitro farnesylation reaction. MALDI-TOF mass spectra of RC peptide before (A) and after (B) in vitro farnesylation reaction. One hundred pmol RC-peptide (KKFFCAIS) were mixed with 3000 pmol FPP azide and 35 pmol FTase in 7 μl reaction buffer and incubated at 30° C. for 10 h. The F-azide modified RC-peptide was confirmed by mass spectrometry (m/z, 1191).
To determine whether farnsyltransferase can use FPP azide as a substrate for protein farnesylation, an in-vitro enzymatic reaction was carried out between a CAAX-box containing peptide (RC peptide, KKFFCAIS) and FPP azide.
The molecular masses of the peptide prior to and after enzymatic reaction were determined by MALDI-TOF mass spectrometry. F-azide-modified peptide was detected after enzymatic reaction (m/z, 1191 Da, a mass increase of 246 Da over RC peptide) (FIG. 2).
In a parallel study, an enzymatic reaction was carried out with FPP, the natural substrate for protein farnesylation.

[6] = test system: Ras; test: immunoprecipitation of Ras, conjugation to biotinylated phosphine capture reagent and Western blotting; assay type: cell-based; details: cells dosed with FPP-azide versus control cells
Source text: The resulting immunocomplexes were resolubilized in 1×SDS sample buffer and then subjected to conjugation reaction using biotinylated phosphine capture reagents, respectively. The free biotinylated capture reagent was removed by a desalting column, resolved in SDS-PAGE, and then detected by Western blotting analysis […]. Protein signals corresponding molecular weights of HDJ-2 and Ras were detected from the cells dosed with FPP-azide but not in the control cells.

Compound	effect on lovastatin-induced mobility shift of Ras [1]	F-azide modified proteins detected by Western blotting with HRP-conjugated streptavidin [2]	growth rate of cells compared with cells cultured without the compounds [3]	membrane association of Ras [4]	substrate for the farnesyltransfer reaction in vitro ([5]; RC peptide, FTase)	reaction rate with RC peptide compared with FPP ([5]; in vitro enzymatic reaction, parallel study with natural substrate FPP)	protein signal at the molecular weight of Ras [6]	mobility shift of Ras ([1]; COS-1 cells, compound alone)	localisation of Ras ([4]; cells treated with lovastatin)
CC(=CCO)CCC=C(C)CCC=C(C)CN=[N+]=[N-] [F-azide-OH, azido-farnesyl alcohol]	reversed the mobility shift	detection of multiple proteins	comparable growth rate	restore membrane association					
CC(C)=CCC/C(C)=C/CC/C(C)=C/CC/C(C)=C/CO [GG-OH, geranylgeranyl alcohol, reference compound]	not affect the mobility shifts								
azido farnesyl diphosphate [FPP azide]	reversed the mobility shift	detection of multiple proteins	comparable growth rate	restore membrane association	good substrate	somewhat faster	detected		
CC[C@H](C)C(=O)O[C@H]1C[C@@H](C)C=C2C=C[C@H](C)[C@H](CC[C@@H]3C[C@@H](O)CC(=O)O3)[C@H]21 [lovastatin, reference compound]								induce mobility shift	mainly detected in cytosol
